Data: patent US5840336A, “Two-phase matrix for sustained release drug delivery device” (Cygnus, Inc., priority 1995, dated 1998)

Columns and labels:
[1] = assay type: in vivo
Experimental: The effective dose for treating Parkinson's disease is estimated to be in the range of about 1 to 3 μg/kg/hr. Accordingly, for transdermal administration, the target flux of this drug (based on a 20 cm^2 delivery area) is estimated to be in the range of approximately 3-10 μg/cm^2 /hr.

[2] = pH 6
[3] = test system: D2; conditions: cited from earlier work
[4] = Solubility of the drug in pH 5.0 phosphate buffer receiver fluid; assay type: physicochemical

| solubility for the drug [4] | SMILES | target flux [1] | effective dose for treating Parkinson's disease ([1]; estimated) | skin flux from liquid formulations [2] | selective D2 agonist [3] |
| --- | --- | --- | --- | --- | --- |
|  | CCCN(CCc1cccs1)[C@H]1CCc2c(O)cccc2C1 [S(-)-2-(N-propyl-N-2-thienylethylamine)-5-hydroxytetralin] | 3-10 μg/cm^2 /hr | 1 to 3 µg/kg/h | at or above the effective range | selective D2 agonist |
| reasonable solubility | Cc1cccc(CN2CCN(C)C[C@@H](NC(=O)c3n[nH]c4ccccc34)C2)c1.Cl.Cl [(R)-(-)-N-(1-Methyl-4-(3-methylbenzyl)hexahydro-1H-1,4-diazepin-6-yl)-1H-indazole-3-carboxamide dihydrochloride] |  |  |  |  |
